One molecule from patent US11905324B2, “Fluorescent fusion polypeptide capable of detecting phosphorylation of cellular membrane receptors by GRKs (G-protein receptor kinases) and/or receptor tyrosine kinases (RTKs)” (Innovative Technologies in Biological Systems SL, priority 2017, dated 2024) can be followed below.

The assay has as its target T1, NK1 receptor (Homo sapiens, UniProt P25103).
T1 construct: expressed in transfected cells
Briefly: NK1-Red ß-ARRNomad biosensor cell line inhibition assay (co-treatment with Substance P). The assay is classed as cell-based. The note with it: co-treated with Substance P 100 nM, 24 h, BD PATHWAY 855; read-out: Ic50 (inhibition of NK1 receptor, biosensor change of localization). As for the experimental part: The Ic50 for L733,060 was Approx. 1.84×10^−7M after a treatment of 24 h with the agonist.

T1 sequence (P25103 whole entry, species assumed): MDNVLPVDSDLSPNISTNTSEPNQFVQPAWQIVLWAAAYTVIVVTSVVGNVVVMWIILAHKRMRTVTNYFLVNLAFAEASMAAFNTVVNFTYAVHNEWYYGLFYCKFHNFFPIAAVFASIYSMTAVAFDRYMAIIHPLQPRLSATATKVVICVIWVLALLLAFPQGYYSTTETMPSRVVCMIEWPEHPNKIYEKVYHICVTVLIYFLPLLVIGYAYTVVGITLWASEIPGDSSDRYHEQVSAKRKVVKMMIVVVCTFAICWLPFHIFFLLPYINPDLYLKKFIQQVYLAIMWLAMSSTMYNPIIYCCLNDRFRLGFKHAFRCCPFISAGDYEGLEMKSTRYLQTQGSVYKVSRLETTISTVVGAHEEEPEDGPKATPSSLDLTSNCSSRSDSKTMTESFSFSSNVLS

For orientation: IC50 means the concentration needed to halve the response being measured. For the molecule `FC(F)(F)c1cc(CO[C@H]2CCCN[C@H]2c2ccccc2)cc(C(F)(F)F)c1` [L733,060], the IC50 is about 0.184 µM.
